Consider 55 compounds from US8697694B2, “Substituted pyridine and pyrimidine derivatives and their use in treating viral infections” (priority 2008, dated 2014).

Broadly, the EC90 is the point of the concentration-response curve where the effect stands at 90%.

Some results are limits rather than exact numbers.

The test system of the first assay is HCV replicon cells. In words: Cell-based HCV replicon assay (replicon RNA level by real time PCR, Taqman). Particulars: Hepatitis C virus, 72 h, HCV replicon cells, harvested day 3, replicon RNA by real time PCR; given as number; read-out: EC90 (μM) range. Put shortly:
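Readout: ΔCT between NS5B replicon RNA and GAPDH by real-time RT-PCR in lysates harvested on day 3, fitted sigmoidally; EC50 at ΔCT=1, EC90 at ΔCT=3.2. Compounds tested at ten 2-fold dilutions from 25 μM to 1 μM start, 10% FBS, 0.5% DMSO.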
Background: In antiviral work, replicon cells carry a viral genome segment that copies itself.
Take `CON=C1[C@H](Nc2nc(NCC(F)(F)F)nc(C)c2-c2nc3ccccc3s2)C[C@H](CO)[C@H]1O` [Example 55]: the EC90 amounted to 3.4 µM.

As for `CNC(=O)OC[C@H]1C[C@@H](Nc2nc(NCC(F)(F)F)nc(C)c2-c2nc3ccccc3s2)[C@H](O)[C@@H]1O` [Example 66], the EC90 is 0.85 µM.

Turning to `CCOc1cc2cc(-c3c(C)nc(NCC(C)(C)C)nc3N[C@@H]3C[C@H](CO)[C@@H](O)[C@H]3O)oc2c(C)n1` [Example 27], the EC90 was 0.35 µM.

The same assay, now with this note: Hepatitis C virus, 72 h, HCV replicon cells, harvested day 3, replicon RNA by real time PCR; reported as range class; read-out: EC90 (μM) range.
In the case of `Nc1nc(Cl)c(-c2cc3ccccc3s2)c(N[C@@H]2C[C@H](CO)[C@@H](O)[C@H]2O)n1` [Example 102], the EC90 was above 5 µM.

Regarding `CCOc1cc2cc(-c3c(Cl)nc(NCCOC)nc3N[C@@H]3C[C@H](CO)[C@@H](O)[C@H]3O)oc2c(C)n1` [Example 21], the EC90 was below 0.5 µM.

In the case of `Cc1nc(NCCOC(C)C)nc(N[C@@H]2C[C@H](CO)[C@@H](O)[C@H]2O)c1-c1nc2ccccc2s1` [Example 220], the EC90 is below 0.5 µM.

On to `Nc1nc(Cl)c(-c2cc3cc(F)c(F)cc3o2)c(N[C@@H]2C[C@H](CO)[C@@H](O)[C@H]2O)n1` [Example 169], for which the EC90 was above 5 µM.

Take `CNC(=O)c1ccc2oc(-c3c(Cl)nc(N)nc3N[C@@H]3C[C@H](CO)[C@@H](O)[C@H]3O)cc2c1` [Example 172]: the EC90 was above 5 µM.

As for `CCc1nc(N(C)C)nc(N[C@@H]2C[C@H](CO)[C@@H](O)[C@H]2O)c1-c1nc2ccccc2s1` [Example 314], the EC90 is above 5 µM.

As for `OC[C@H]1C[C@@H](Nc2nc(NCCC(F)(F)F)nc(Cl)c2-c2nc3ccccc3s2)[C@H](O)[C@@H]1O` [Example 217], the EC90 was below 0.5 µM.

As to `CCc1cc2cc(-c3c(Cl)nc(N)nc3N[C@@H]3C[C@H](CO)[C@@H](O)[C@H]3O)oc2c(C)n1` [Example 309], the EC90 was below 0.5 µM.

In the case of `CNc1nc(C)c(-c2nc3ccccc3s2)c(N[C@@H]2C[C@H](CO)[C@@H](O)[C@H]2O)n1` [Example 319], the EC90 was below 0.5 µM.

On to `CO[C@@H](C)CNc1nc(C)c(-c2nc3ccccc3s2)c(N[C@@H]2C[C@H](CO)[C@@H](O)[C@H]2O)n1` [Example 229], for which the EC90 is below 0.5 µM.

The assay is the same for the next values; noted with them: Hepatitis C virus, 72 h, HCV replicon cells, harvested on day 3, replicon RNA by real time PCR; calculated EC90 reported as range class; read-out: EC90 (μM) range.
Consider `Cc1nc(NCc2cccc[n+]2[O-])nc(N[C@@H]2C[C@H](CO)[C@@H](O)[C@H]2O)c1-c1nc2ccccc2s1` [Example 482], for which the EC90 is 0.5 to 5 µM.

Regarding `Cc1nc(NCc2ccccc2C(F)(F)F)nc(N[C@@H]2C[C@H](CO)[C@@H](O)[C@H]2O)c1-c1nc2ccccc2s1` [Example 239], the EC90 is 0.5 to 5 µM.

For the compound `Cc1nc(NCc2ccc(C(F)(F)F)cc2)nc(N[C@@H]2C[C@H](CO)[C@H]3OC(C)(C)O[C@H]32)c1-c1nc2ccccc2s1` [Example 241], the EC90 is 0.5 to 5 µM.

Turning to `COc1ccc(CNc2nc(C)c(-c3nc4ccccc4s3)c(N[C@@H]3C[C@H](CO)[C@H]4OC(C)(C)O[C@H]43)n2)cc1OC` [Example 708], the EC90 was below 0.5 µM.

On to `COCc1cc2cc(-c3c(C)nc(NCc4nccs4)nc3N[C@@H]3C[C@H](CO)[C@@H](O)[C@H]3O)oc2cn1` [Example 340], for which the EC90 was below 0.5 µM.

For `COCCNc1nc(C)c(-c2cc3cc(C(F)(F)F)ncc3o2)c(N[C@@H]2C[C@H](CO)[C@H]3OC(C)(C)O[C@H]32)n1` [Example 135], the EC90 is above 5 µM.

In the case of `OC[C@H]1C[C@@H](Nc2nc(NCc3cccc(F)c3)nc(Cl)c2-c2nc3ccccc3s2)[C@H](O)[C@@H]1O` [Example 234], the EC90 is below 0.5 µM.

As to `CCCCCNc1nc(C)c(-c2nc3ccccc3s2)c(N[C@@H]2CC[C@@H](O)[C@H]2O)n1` [Example 327], the EC90 is below 0.5 µM.

Turning to `Cc1nc(NCc2ccccn2)nc(N[C@@H]2C[C@H](CO)[C@@H](O)[C@H]2O)c1-c1nc2ccccc2s1` [Example 465], the EC90 was below 0.5 µM.

As to `Cc1nc(NCc2ccco2)nc(N[C@@H]2C[C@H](CO)[C@H]3OC(C)(C)O[C@H]32)c1-c1nc2ccccc2s1` [Example 469], the EC90 is below 0.5 µM.

Take `Cc1nc(NCc2ccccc2)nc(N[C@@H]2C[C@H](CO)[C@@H](O)[C@H]2O)c1-c1nc2ccccc2s1` [Example 431]: the EC90 is below 0.5 µM.

Regarding `Cc1nc(NCC(F)(F)F)nc(N[C@@H]2C[C@H](CO)[C@@H](O)[C@H]2O)c1-c1nc2cc(N(C)C)ccc2s1` [Example 247], the EC90 is below 0.5 µM.

In the case of `Cc1nc(NCc2cccs2)nc(N[C@@H]2CCC[C@H]2O)c1-c1nc2ccccc2s1` (racemic) [Example 333], the EC90 is below 0.5 µM.

The same assay, now with this note: Hepatitis C virus, 72 h, HCV replicon cells, replicon RNA level by real time PCR (Taqman), day 3; calculated EC90; read-out: EC90 (μM) range.
Consider `COc1cc(CCNc2nc(C)c(-c3nc4cnccc4s3)c(N[C@@H]3C[C@H](CO)[C@H]4OC(C)(C)O[C@H]43)n2)cc(OC)c1` [Example 2009], for which the EC90 is below 0.5 µM.

`Cc1nc(NCC(F)(F)F)nc(N[C@@H]2C[C@H](CO)[C@H]3OC(C)(C)O[C@H]32)c1-c1nc2ncccc2o1` [Example 2006]: the EC90 is 0.5 to 5 µM.

Still in this assay, the particulars now being: Hepatitis C virus, 72 h, HCV replicon cells, replicon RNA level by real time PCR (Taqman), harvested on day 3; calculated EC90 reported as range class; read-out: EC90 (μM) range.
`Cc1nc(NCc2cccc(N(C)C)c2)nc(N[C@@H]2C[C@H](CO)[C@H]3OC(C)(C)O[C@H]32)c1-c1nc2ccccc2s1` [Example 1105]: the EC90 is 0.5 to 5 µM.

Turning to `Cc1ccc([C@@H](C)Nc2nc(C)c(-c3nc4cnccc4s3)c(N[C@@H]3C[C@H](CO)[C@@H](O)[C@H]3O)n2)cc1` [Example 544], the EC90 was below 0.5 µM.

For `CC(=O)NC[C@H]1C[C@@H](Nc2nc(NCc3cccs3)nc(C)c2-c2nc3ccccc3s2)[C@H](O)[C@@H]1O` [Example 1331], the concentration for an effect of 90% (EC90) is below 0.5 µM.

For the compound `CCc1nccc2sc(-c3c(C)nc(N[C@H](C)c4ccc(C)cc4)nc3N[C@@H]3C[C@H](CO)[C@@H](O)[C@H]3O)nc12` [Example 1335], the EC90 was below 0.5 µM.

As for `Cc1nc(N(C)C)nc(N[C@@H]2C[C@H](CO)[C@@H](O)[C@H]2O)c1-c1nc2cnccc2s1` [Example 533], the EC90 is above 5 µM.

As to `Cc1nc(NCc2ccccc2O)nc(N[C@@H]2C[C@H](CO)[C@@H](O)[C@H]2O)c1-c1nc2ccccc2s1` [Example 1220], the 90% effect concentration (EC90) is below 0.5 µM.

As for `COCCNc1nc(C)c(-c2nc3cc(OC(F)F)c(OC(F)F)cc3s2)c(N[C@@H]2C[C@H](CO)[C@@H](O)[C@H]2O)n1` [Example 1004], the EC90 was 0.5 to 5 µM.

On to `CCc1nccc2sc(-c3c(C)nc(NCC4CC4)nc3N[C@@H]3C[C@H](CO)[C@@H](O)[C@H]3O)nc12` [Example 1333], for which the EC90 is below 0.5 µM.

`Cc1ccc2nc(-c3c(C)nc(NCC(F)(F)F)nc3N[C@@H]3C[C@H](CO)[C@@H](O)[C@H]3O)sc2c1` [Example 1063]: the EC90 is 0.5 to 5 µM.

Staying with this assay, now noted: Hepatitis C virus, 72 h, HCV replicon cells, replicon RNA level by real time PCR, harvested day 3; read-out: EC90 (μM) range.
Regarding `CCOCCNc1nc(C)c(-c2nc3cnccc3s2)c(N[C@@H]2CC[C@@H](O)[C@@]2(C)O)n1` [Example 1819], the EC90 is below 0.5 µM.

`CCC1(O)[C@H](O)[C@@H](CO)C[C@H]1Nc1nc(NCC2CC2)nc(C)c1-c1nc2cnccc2s1` (stereo partly shown) [Example 1385]: the EC90 is below 0.5 µM.

Turning to `Cc1nc(N[C@H](C)C2CC2)nc(N[C@@H]2C[C@H](C(C)O)[C@@H](O)[C@H]2O)c1-c1nc2cnccc2s1` (stereo partly shown) [Example 1642], the EC90 was below 0.5 µM.

Consider `Cc1nc(NC2CC2)nc(N[C@@H]2C[C@H](C(C)O)[C@@H](O)[C@H]2O)c1-c1nc2c(C)nccc2s1` (stereo partly shown) [Example 1398], for which the concentration for an effect of 90% (EC90) was below 0.5 µM.

Consider `Cc1nc(C(N)=O)nc(N[C@@H]2C[C@H](CO)[C@@H](O)[C@H]2O)c1-c1nc2ccccc2s1` [Example 1903], for which the EC90 was above 5 µM.

For `Cc1nc(NCCc2ccc(Cl)c(Cl)c2)nc(N[C@@H]2C[C@H](CO)[C@@H](O)[C@H]2O)c1-c1nc2cnccc2s1` [Example 1914], the EC90 is below 0.5 µM.

Regarding `CCC(O)[C@H]1C[C@@H](Nc2nc(NCC(F)(F)F)nc(C)c2-c2nc3ccccc3s2)[C@H](O)[C@@H]1O` (stereo partly shown) [Example 1637], the EC90 was in the range of 0.5 to 5 µM.

For `Cc1nc(O)nc(N[C@@H]2C[C@H](CO)[C@@H](O)[C@H]2O)c1-c1nc2ccccc2s1` [Example 1605], the EC90 was above 5 µM.

As for `Cc1nc(NCC(F)(F)F)nc(N[C@@H]2C[C@H](CNS(=O)(=O)CC(C)C)[C@@H](O)[C@H]2O)c1-c1nc2ccccc2s1` [Example 1512], the EC90 is 0.5 to 5 µM.

As for `Cc1nc(NCc2c(F)cccc2F)nc(N[C@@H]2CC[C@@H](O)[C@@]2(C)O)c1-c1nc2cnccc2s1` [Example 1808], the EC90 is below 0.5 µM.

`Cc1nc(NCC(F)(F)F)nc(N[C@@H]2C[C@@H](CN(CC3CC3)S(C)(=O)=O)[C@@H](O)[C@H]2O)c1-c1nc2ccccc2s1` [Example 1394]: the concentration for an effect of 90% (EC90) fell in the range of 0.5 to 5 µM.

As for `CCOCCNc1nc(C)c(-c2nc3c(CC)nccc3s2)c(N[C@@H]2C[C@H](CO)[C@@H](O)[C@H]2O)n1` [Example 1504], the EC90 is below 0.5 µM.

As to `Cc1nc(NCC2CC2)nc(N)c1-c1nc2cnccc2s1` [Example 1510], the EC90 fell in the range of 0.5 to 5 µM.

As to `Cc1nc(NC2CC2)nc(N[C@@H]2C[C@H](CO)[C@@H](O)[C@H]2O)c1-c1nc2c(CC(C)C)nccc2s1` [Example 1537], the EC90 is below 0.5 µM.

As for `Cc1ccsc1CCNc1nc(C)c(-c2nc3cnccc3s2)c(N[C@@H]2C[C@H](CO)[C@@H](O)[C@H]2O)n1` [Example 1707], the EC90 was below 0.5 µM.

Regarding `Cc1nc(N[C@H](C)c2ccc(OC(F)(F)F)cc2)nc(N[C@@H]2CC[C@@H](O)[C@@]2(C)O)c1-c1nc2cnccc2s1` [Example 1542], the EC90 was 0.5 to 5 µM.

For the compound `CCCc1nccc2sc(-c3c(C)nc(N[C@H](C)c4ccc(C)cc4)nc3N[C@@H]3C[C@H](CO)[C@@H](O)[C@H]3O)nc12` [Example 1371], the EC90 was below 0.5 µM.

`Cc1nc(NCC(F)(F)F)nc(N[C@@H]2C[C@H](C)[C@@H](O)[C@H]2O)c1-c1nc2ccccc2s1` [Example 1630]: the EC90 is below 0.5 µM.
